Where a SMILES comes first, the peptide text is derived from it.
Molecular target: T1, DppA (E. coli dipeptide binding protein) (Escherichia coli, UniProt P23847)
T1 sequence (P23847 29-535): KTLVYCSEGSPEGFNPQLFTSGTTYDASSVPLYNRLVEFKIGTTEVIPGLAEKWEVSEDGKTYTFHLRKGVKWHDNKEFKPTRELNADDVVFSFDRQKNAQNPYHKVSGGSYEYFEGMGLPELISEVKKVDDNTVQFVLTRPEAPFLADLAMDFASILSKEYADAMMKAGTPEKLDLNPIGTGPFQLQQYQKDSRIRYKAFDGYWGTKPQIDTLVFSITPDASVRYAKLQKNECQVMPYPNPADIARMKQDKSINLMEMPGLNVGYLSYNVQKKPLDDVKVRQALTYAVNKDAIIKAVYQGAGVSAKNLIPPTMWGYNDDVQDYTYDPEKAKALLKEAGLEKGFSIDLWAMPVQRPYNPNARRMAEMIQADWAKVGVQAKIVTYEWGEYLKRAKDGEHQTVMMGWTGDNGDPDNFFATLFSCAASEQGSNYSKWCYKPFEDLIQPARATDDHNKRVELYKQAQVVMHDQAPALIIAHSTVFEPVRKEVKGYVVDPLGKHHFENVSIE
Experiment: isothermal titration calorimetry
Description: isothermal titration calorimetry on DppA (E. coli dipeptide binding protein)

SMILES	Kd [nM]
C[C@H](N)C(=O)N[C@@H](C)C(=O)O [AA, Alanine–Alanine (A–A)] (H-Ala-Ala-OH)	37
C[C@H](N)C(=O)N[C@@H](Cc1ccccc1)C(=O)O [AF, Alanine–Phenylalanine (A–F)]	357

Source: article PMC8566422, “Thermodynamics of semi-specific ligand recognition: the binding of dipeptides to the E.coli dipeptide binding protein DppA” (European Biophysics Journal, 2021)
